Assay results: patent US9719093B2, “Composition for treating cancer associated with HPV infection” (priority 2012, dated 2017)

Test system: HeLa cell line
Assay: Cell senescence-associated β-galactosidase (SA-β-gal) activity
Type: cell-based
Settings: treated alone
Procedure: A HeLa or Caski cell line, which was seeded in a 6-well plate in 2×10^5 cells or 1.5×10^5 cells and then cultured for a day by the method as described above, was transduced with siRNA. Then, each transduced cell line was treated with cisplatin (CDDP) in a final concentration of 2.5 uM, and cultured.
By using the cell senescence assay kit (BioVision, USA), cells were washed with PBS and treated with SA-β-gal staining solution for 12 hours at 37. Cells stained in blue were observed by using a general optical microscope with the magnification of 100 to 200 times.
SA β-Gal activity of a HeLA or Caski cell line, which was treated by the method as described above, was measured.

## N.N.[Cl][Pt][Cl] [cisplatin]
  SA β-Gal activity (staining): cells were stained in blue
